# From patent US6784201B2, “Benzothiepines having activity as inhibitors of ileal bile acid transport and taurocholate uptake” (G.D. Searle & Company, priority 1994, dated 2004)
# Experiments:
# [1] = Rat Alzet minipump model: body, liver and fecal weight; format: in vivo; details: 20 MPL/DAY, mean (SEM)
# [2] = tested on: Hepatic Cholesterol 7-α-Hydroxylase; assay: Hepatic cholesterol 7-α-hydroxylase activity, rat Alzet minipump model; format: in vivo; details: 20 MPL/DAY, mean (SEM)
# Protocol: Measurement of Hepatic Cholesterol 7-α-Hydroxylase Activity (7a-OHase)
# Hepatic microsomes were prepared by homogenizing liver samples in a phosphate/sucrose buffer, followed by centrifugal separation. The final pelleted material was resuspended in buffer and an aliquot was assayed for cholesterol 7-α-hydroxylase activity by incubating for 5 minutes at 37° C. in the presence of NADPH. Following extraction into petroleum ether, the organic solvent was evaporated and the residue was dissolved in acetonitrile/methanol. The enzymatic product was separated by injecting an aliquot of the extract onto a C18 reversed phase HPLC column and quantitating the eluted material using UV detection at 240 nm. (Reference: Horton, J. D., et al. (1994) J. Clin. Invest. 93, 2084).
# ACAT = assay: Acyl-CoA; cholesterol acyl transferase (ACAT), rat intestinal microsomes; format: biochemical; details: read-out: ACAT intestine IC(50)
# Protocol: Acyl-CoA; Cholesterol Acyl Transferase (ACAT)
# Hamster liver and rat intestinal microsomes were prepared from tissue as described previously (Reference: (1980) J. Biol. Chem. 255, 9098) and used as a source of ACAT enzyme. The assay consisted of a 2.0 ml incubation containing 24 μM Oleoyl-CoA (0.05 μCi) in a 50 mM sodium phosphate, 2 mM DTT ph 7.4 buffer containing 0.25% BSA and 200 μg of microsomal protein. The assay was initiated by the addition of oleoyl-CoA. The reaction went for 5 min at 37° C. and was terminated by the addition of 8.0 ml of chloroform/methanol (2:1). […] The chloroform phase was taken to dryness and then spotted on a silica gel 60 TLC plate and developed in hexane/ethyl ether (9:1). The amount of cholesterol ester formed was determined by measuring the amount of radioactivity incorporated into the cholesterol oleate spot on the TLC plate with a Packard instaimager.
# Fecal Bile Acid = assay: Fecal bile acid concentration (FBA), rat Alzet minipump model; format: in vivo; details: 20 MPL/DAY, mean (SEM)
# Protocol: Measurement of Fecal Bile Acid Concentration (FBA)
# Total fecal output from individually housed hamsters was collected for 24 or 48 hours, dried under a stream of nitrogen, pulverized and weighed. Approximately 0.1 gram was weighed out and extracted into an organic solvent (butanol/water). Following separation and drying, the residue was dissolved in methanol and the amount of bile acid present was measured enzymatically using the 3α-hydroxysteroid steroid dehydrogenase reaction with bile acids to reduce NAD. (Reference: Mashige, F., et al. (1981) Clin. Chem. 27, 1352).
# [3] = tested on: Rabbit Ileal brush border membranes; assay: [3H]taurocholate uptake in rabbit brush border membrane vesicles (BBMV); format: biochemical; details: read-out: TC-uptake (BBMV) IC(50)
# Protocol: [^3H]Taurocholate Uptake in Rabbit Brush Border Membrane Vesicles (BBMV)
# Rabbit Ileal brush border membranes were prepared from frozen iheal mucosa by the calcium precipitation method describe by Malathi et al. (Reference: (1979) Biochimica Biophysica Acta, 554, 259). The method for measuring taurocholate was essentially as described by Kramer et al. (Reference: (1992) Biochimica Biophysica Acta, 1111, 93) except the assay volume was 200 μl instead of 100 μl.
# [4] = tested on: Hepatic HMG CoA-Reductase; assay: Hepatic HMG CoA-reductase activity, rat Alzet minipump model; format: in vivo; details: 20 MPL/DAY, mean (SEM)
# Protocol: (§1) Measurement of Hepatic HMG CoA-Reductase Activity (HMG COA)
# (§2) Hepatic microsomes were prepared by homogenizing liver samples in a phosphate/sucrose buffer, followed by centrifugal separation. The final pelleted material was resuspended in buffer and an aliquot was assayed for HMG CoA reductase activity by incubating for 60 minutes at 37° C. in the presence of ^14C-HMG-CoA (Dupont-NEN). The reaction was stopped by adding 6N HCl followed by centrifugation. An aliquot of the supernatant was separated, by thin-layer chromatography, and the spot corresponding to the enzyme product was scraped off the plate, extracted and radioactivity was determined by scintillation counting. (Reference: Akerlund, J. and Bjorkhem, I. (1990) J. Lipid Res. 31, 2159).
# H14 cells = assay: In vitro assay of uptake of [14C]-alanine; format: cell-based, hamster; details: Mesocricetus auratus; 10 μM
# Method in brief: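 H14 cells (BHK expressing human IBAT) incubated 2 h at 37 °C with compound and labelled alanine, in the same format as the 3 μM [14C]-taurocholate uptake assay, in DMEM with 0.2% fatty acid-free BSA. After cold PBS washes, cell-associated radioactivity measured by scintillation counting.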
# [5] = tested on: Hepatic HMG CoA-Reductase; assay: Hepatic HMG CoA-reductase activity, cholesterol-fed hamsters; format: in vivo, hamster; details: 0.2% Cpd. No. 25, mean (SEM)
# Protocol: as §1, §2
structure (smiles),measurement,setting,value
"CCCC[C@]1(CC)CS(=O)(=O)c2cc(OC)ccc2[C@@H](c2ccccc2)[C@H]1O [Example 25, (3α,4β,5β) 3-Butyl-3-ethyl-4-hydroxy-8-methoxy-5-phenyl-2,3,4,5-tetrahydrobenzothiepine-1,1-dioxide]",LIVER WEIGHT (G),[1],14.6 (0.4) G
same,WEIGHT (G) day 1,[1],307 (3) G
same,WEIGHT (G) day 8,[1],"310 (4) *A, B G"
same,7a-OHase (pm/mg/min),[2],"535.2 (35.7) *A, B pm/mg/min"
same,IC50,ACAT,8 µM
same,FBA (mM/24 H/100 g),Fecal Bile Acid,"39.1 (4.5) *A, B mM/24 H/100 g"
same,IC50,[3],800 nM
same,HMG COA pm/mg/min,[4],"318.0 (40.7) *A, B pm/mg/min"
same,inhibition at 10 µM,H14 cells,4%
same,HMG COA (pm/mg/min.),[5],312.9 (37.5) pm/mg/min.
